From paper PMC3955178, “Structural characterization of a hypothetical protein: a potential agent involved in trimethylamine metabolism in Catenulispora acidiphila” (Journal of Structural and Functional Genomics, 2014)

Assays:
[1] = target: T1, Caci_0382 (Catenulispora acidiphila, UniProt C7PVH9); assay: fluorescence thermal shift (Sypro Orange); assay type: binding; details: 20 mM Hepes pH 7.5, 150 mM NaCl; 14 μM protein; printed as Tm but evidently the Tm shift; unit and concentration not given; in °C (unit assumed)
T1 construct: homodimer
T1 sequence (C7PVH9 1-134): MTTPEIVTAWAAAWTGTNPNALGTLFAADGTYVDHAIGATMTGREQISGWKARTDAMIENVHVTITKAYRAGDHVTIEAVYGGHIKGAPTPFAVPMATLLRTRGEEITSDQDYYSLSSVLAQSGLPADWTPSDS

[2] = target: T1, Caci_0382; assay: fluorescence thermal shift (Sypro Orange); assay type: binding; details: read-out: Tm shift at 0.1 mM
[3] = target: the molecule itself; assay: SEC; gel-filtration chromatography, data not shown

**Q.** `c1c[nH]cn1` [Imidazole] was tested. Which Tm [1] did it give?
**A.** 10.26

**Q.** For `CN(C)C` [TMA, trimethylamine], which ΔTm at 100 µM [2] is on record?
**A.** 3 °C

B1: Caci_0382 from Catenulispora acidiphila DSM 44928 (natural protein)
chain: MTTPEIVTAWAAAWTGTNPNALGTLFAADGTYVDHAIGATMTGREQISGWKARTDAMIENVHVTITKAYRAGDHVTIEAVYGGHIKGAPTPFAVPMATLLRTRGEEITSDQDYYSLSSVLAQSGLPADWTPSDS
modifications: selenomethionine-labeled
notes: Caci_0382, hypothetical protein of the NTF2-like family, Catenulispora acidiphila DSM 44928; the gene encodes a 134 amino-acid protein of 14.3 kDa; Subcloned in the pMCSG57 vector, which adds a 6 His-Tag at the N-terminus; 131 Calpha atoms per subunit were aligned between the two crystal forms; also called hypothetical protein Caci_0382
**Q.** Which “stoichiometry N” value [3] does the source give for B1 here?
**A.** 2
